Intraperitonal score and Subcutaneous score data for four compounds are collected here from ChEMBL document CHEMBL1132656, “Design of highly active analogues of the pyrrolo[1,2-a]benzimidazole antitumor agents” (1999).

Assay [1] is filed under the species Mus musculus. In words: The compound was tested for its ability to get to the tumor site after indicates that there is a percent T/C of 50 or < 50(tumor mass 50% or < the control)]. It counts as functional. On the set-up: scale not given here.
For assay [2], the system named is Mus musculus. In words: The compound was tested for its ability to get to the tumor site after subcutaneous administration [Score of 2 indicates that there is a percent T/C of 50 or < 50(tumor mass 50% or < the control)]. It counts as functional.

In the assay listed under Mus musculus [1], `CC(=O)N[C@H]1CCn2c1nc1c2C(=O)C(C)=C(N2CC2)C1=O` registered an Intraperitonal score of 38. Also, in the assay on Mus musculus [2], the Subcutaneous score is on record as 14.
Take `CC1=C(N2CC2)C(=O)c2nc3n(c2C1=O)CCC3OC(N)=O` (stereo not drawn): the Intraperitonal score in the assay filed under Mus musculus [1] came to 24. Also, the Subcutaneous score in the assay with Mus musculus [2] was determined as 6.
On the same counts, the results for `CC(=O)NC1CCn2c1nc1c2C(=O)C(C)=C(N2CC2)C1=O` (stereo not drawn) are 46 and 6.
Consider `CC(=O)OC1CCn2c1nc1c2C(=O)C(C)=C(N2CC2)C1=O` (stereo not drawn), for which the Intraperitonal score in the assay filed under Mus musculus [1] was 40. In the assay on Mus musculus [2], the Subcutaneous score is on record as 8.
